# Assay results taken from ChEMBL document CHEMBL1201862, “PubChem BioAssay data set” (2004).
# The source made the active and inactive calls.
# Assays:
# Cytochrome P450 1A2 = molecular target: T1, Cytochrome P450 1A2 (Homo sapiens, UniProt P05177);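 note: PubChem cytochrome P450 panel assay, CYP1A2 panel member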
# T1 sequence (P05177 whole entry): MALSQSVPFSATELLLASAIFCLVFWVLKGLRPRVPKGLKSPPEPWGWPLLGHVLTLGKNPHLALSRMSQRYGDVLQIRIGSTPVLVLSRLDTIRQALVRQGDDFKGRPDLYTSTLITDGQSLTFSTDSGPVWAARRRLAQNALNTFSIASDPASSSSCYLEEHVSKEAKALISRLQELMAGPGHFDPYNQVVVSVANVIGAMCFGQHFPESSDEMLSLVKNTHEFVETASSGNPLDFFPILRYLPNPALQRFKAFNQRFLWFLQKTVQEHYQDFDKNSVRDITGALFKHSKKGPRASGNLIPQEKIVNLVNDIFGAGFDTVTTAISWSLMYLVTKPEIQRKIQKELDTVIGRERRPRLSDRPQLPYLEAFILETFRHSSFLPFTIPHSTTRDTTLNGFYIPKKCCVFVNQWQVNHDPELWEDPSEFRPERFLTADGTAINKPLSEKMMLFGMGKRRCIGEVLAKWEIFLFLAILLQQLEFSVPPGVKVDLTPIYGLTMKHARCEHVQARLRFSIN
# [1] = molecular target: T2, RNA-binding protein pos-1 (Caenorhabditis elegans, UniProt G5EF15); assay: inhibitors of POS-1/mex-3 RNA binding, dose response, biochemical, fluorescence polarization (AID 1964);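 note: purified POS-1 fused to maltose binding protein made in E. coli; potency of compounds blocking POS-1 binding to fluorescent RNA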
# T2 sequence (G5EF15 whole entry): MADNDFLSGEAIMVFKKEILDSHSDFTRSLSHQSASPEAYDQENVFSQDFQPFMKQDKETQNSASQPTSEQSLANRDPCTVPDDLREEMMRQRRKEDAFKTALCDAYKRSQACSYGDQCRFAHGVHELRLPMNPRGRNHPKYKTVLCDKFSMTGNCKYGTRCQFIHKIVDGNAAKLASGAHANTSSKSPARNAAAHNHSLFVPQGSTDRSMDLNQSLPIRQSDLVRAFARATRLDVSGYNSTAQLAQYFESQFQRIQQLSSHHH
# [2] = molecular target: T3, Zinc finger protein mex-5 (Caenorhabditis elegans, UniProt Q9XUB2); assay: MEX-5/TCR-2 RNA interaction inhibitors, dose response, biochemical, C. elegans, fluorescence polarization (AID 1960)
# T3 sequence (Q9XUB2 whole entry): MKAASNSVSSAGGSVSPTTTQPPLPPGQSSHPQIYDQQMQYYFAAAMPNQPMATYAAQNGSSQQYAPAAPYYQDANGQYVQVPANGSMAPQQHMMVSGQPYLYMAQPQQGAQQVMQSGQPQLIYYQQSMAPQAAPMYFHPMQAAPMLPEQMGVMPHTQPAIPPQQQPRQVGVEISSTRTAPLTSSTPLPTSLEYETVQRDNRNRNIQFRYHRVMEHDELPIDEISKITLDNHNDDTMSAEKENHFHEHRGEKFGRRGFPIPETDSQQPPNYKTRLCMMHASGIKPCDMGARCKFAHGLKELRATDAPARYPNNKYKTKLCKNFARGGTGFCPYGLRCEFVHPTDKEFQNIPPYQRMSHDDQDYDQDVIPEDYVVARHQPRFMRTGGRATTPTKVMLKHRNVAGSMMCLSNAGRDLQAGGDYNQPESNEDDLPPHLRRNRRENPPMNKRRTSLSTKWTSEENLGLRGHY
# [3] = molecular target: UDP-galactopyranose mutase (Mycobacterium tuberculosis, UniProt P9WIQ1); assay: Inhibitors of Mycobacterium tuberculosis UDP-galactopyranose mutase (UGM) enzyme Measured in Biochemical System Using Plate Reader - 2105-02_Inhibitor_Dose_CherryPick_Activity. [Related pubchem assays (depositor defined):AID504439]
# [4] = molecular target: Beta-adrenergic receptor kinase 1 (Homo sapiens, UniProt P25098); assay: GRK2 inhibitors displacing RNA aptamer, dose response, biochemical, flow cytometry beads, FAM-aptamer, powder set 1 (AID 588720)
# Sequence of Beta-adrenergic receptor kinase 1 (P25098 whole entry, the tested form may be a part): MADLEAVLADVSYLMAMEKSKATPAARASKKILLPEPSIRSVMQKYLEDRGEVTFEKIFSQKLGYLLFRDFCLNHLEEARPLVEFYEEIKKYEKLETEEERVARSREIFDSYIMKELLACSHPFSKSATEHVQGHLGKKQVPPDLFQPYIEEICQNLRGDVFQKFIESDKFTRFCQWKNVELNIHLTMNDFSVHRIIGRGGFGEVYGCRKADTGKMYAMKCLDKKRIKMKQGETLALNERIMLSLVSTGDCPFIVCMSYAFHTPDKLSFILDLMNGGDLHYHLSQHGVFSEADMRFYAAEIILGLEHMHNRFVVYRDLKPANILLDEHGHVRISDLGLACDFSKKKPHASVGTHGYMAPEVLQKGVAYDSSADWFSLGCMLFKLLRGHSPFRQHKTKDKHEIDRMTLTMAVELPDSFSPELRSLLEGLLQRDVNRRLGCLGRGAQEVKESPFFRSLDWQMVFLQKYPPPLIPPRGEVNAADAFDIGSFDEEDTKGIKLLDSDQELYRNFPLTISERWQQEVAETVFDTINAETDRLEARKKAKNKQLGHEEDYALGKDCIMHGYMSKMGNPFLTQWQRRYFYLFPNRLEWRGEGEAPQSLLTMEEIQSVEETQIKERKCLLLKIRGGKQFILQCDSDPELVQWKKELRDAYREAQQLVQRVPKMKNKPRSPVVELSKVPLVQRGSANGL
# [5] = molecular target: T4, Carboxy-terminal domain RNA polymerase II polypeptide A small phosphatase 1 (Homo sapiens, UniProt Q9GZU7); assay: inhibitors of CTDSP1, concentration-response testing, biochemical assay, absorbance-based, actives from ultra-high-throughput screening (AID 540297); assay type: functional
# T4 sequence (Q9GZU7 whole entry): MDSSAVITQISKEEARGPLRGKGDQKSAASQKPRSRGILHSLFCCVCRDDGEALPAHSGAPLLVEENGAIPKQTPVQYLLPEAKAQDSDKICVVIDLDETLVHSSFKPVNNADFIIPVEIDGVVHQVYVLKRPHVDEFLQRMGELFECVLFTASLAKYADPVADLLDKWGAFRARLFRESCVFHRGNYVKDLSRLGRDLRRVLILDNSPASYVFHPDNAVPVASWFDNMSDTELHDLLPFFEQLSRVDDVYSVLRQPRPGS
# [6] = molecular target: T5, Small ubiquitin-related modifier 1 (Homo sapiens, UniProt P63165); assay: inhibitors of SUMO1 partner interactions, dose response, biochemical, FRET (AID 624383); assay type: functional; conditions: read-out: IC50_Mean
# T5 sequence (P63165 whole entry): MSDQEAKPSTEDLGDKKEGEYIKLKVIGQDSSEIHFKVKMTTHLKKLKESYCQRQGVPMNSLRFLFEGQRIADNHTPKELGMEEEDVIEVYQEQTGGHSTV
# [7] = molecular target: T6, Histone-lysine N-methyltransferase NSD2 (Homo sapiens, UniProt O96028); assay type: biochemical
# T6 sequence (O96028 whole entry): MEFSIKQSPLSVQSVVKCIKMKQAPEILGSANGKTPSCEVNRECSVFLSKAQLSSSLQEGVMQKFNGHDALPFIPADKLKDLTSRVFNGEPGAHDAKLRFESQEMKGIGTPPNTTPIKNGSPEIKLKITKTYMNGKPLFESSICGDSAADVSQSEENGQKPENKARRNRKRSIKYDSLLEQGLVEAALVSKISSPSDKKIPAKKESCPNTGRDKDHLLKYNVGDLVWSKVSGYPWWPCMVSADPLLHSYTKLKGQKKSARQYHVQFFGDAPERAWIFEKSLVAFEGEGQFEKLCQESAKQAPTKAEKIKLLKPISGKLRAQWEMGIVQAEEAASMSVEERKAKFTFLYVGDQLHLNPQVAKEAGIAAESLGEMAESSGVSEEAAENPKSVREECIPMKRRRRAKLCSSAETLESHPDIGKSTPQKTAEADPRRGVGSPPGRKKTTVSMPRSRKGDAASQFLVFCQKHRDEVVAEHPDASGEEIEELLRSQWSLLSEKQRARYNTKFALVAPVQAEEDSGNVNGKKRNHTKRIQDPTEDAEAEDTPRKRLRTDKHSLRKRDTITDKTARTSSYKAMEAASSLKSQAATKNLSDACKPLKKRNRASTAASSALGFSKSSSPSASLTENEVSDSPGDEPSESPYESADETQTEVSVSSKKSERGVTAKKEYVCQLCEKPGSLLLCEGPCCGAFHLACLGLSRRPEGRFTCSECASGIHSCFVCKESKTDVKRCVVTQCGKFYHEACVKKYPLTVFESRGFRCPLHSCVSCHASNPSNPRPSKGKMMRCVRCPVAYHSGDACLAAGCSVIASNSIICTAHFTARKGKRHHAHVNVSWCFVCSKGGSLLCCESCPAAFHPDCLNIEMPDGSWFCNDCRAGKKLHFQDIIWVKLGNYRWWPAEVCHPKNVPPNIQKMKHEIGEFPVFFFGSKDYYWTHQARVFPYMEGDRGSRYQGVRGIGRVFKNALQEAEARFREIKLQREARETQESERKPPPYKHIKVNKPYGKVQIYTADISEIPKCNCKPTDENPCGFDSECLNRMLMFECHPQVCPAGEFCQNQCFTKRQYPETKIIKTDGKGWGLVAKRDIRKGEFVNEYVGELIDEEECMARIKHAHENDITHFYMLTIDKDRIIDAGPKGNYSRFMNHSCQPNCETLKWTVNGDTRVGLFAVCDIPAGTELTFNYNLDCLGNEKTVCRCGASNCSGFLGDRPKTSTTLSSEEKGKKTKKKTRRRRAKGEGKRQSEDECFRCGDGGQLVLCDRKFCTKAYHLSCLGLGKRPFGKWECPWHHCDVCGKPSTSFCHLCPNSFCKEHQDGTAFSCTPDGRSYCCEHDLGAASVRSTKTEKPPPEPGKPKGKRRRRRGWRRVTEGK
# [8] = molecular target: RNA-editing ligase 1, mitochondrial (Trypanosoma brucei brucei, UniProt P86926); assay: TbREL1 ligase inhibitors, dose response, biochemical, fluorescence, Trypanosoma brucei (AID 1117295); assay type: functional
# Sequence of RNA-editing ligase 1, mitochondrial (P86926 whole entry): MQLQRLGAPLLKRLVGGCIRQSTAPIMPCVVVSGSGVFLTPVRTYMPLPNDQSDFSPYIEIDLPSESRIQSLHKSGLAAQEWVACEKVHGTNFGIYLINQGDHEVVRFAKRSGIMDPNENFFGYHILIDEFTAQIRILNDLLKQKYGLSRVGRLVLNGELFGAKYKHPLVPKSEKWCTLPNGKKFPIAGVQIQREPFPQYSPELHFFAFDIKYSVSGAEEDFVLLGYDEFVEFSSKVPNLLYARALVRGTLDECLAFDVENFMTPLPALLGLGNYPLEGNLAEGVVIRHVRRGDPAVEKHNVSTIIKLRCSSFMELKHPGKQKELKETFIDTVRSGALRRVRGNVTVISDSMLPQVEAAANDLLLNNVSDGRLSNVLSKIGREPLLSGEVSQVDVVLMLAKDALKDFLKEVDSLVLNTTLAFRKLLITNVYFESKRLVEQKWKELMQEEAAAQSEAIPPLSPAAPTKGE
# HeLa = assay: HeLa cell cytotoxicity, dose response, cytotoxicity control, 24 h, cherry-picked samples (AID 504726); assay type: functional, cell-based; conditions: Homo sapiens;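 note: potency for cytotoxicity as loss of luminescence signal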
# [9] = molecular target: T5, Small ubiquitin-related modifier 1; assay: inhibitors of SUMO1 peptide binding, dose response, biochemical, fluorescence polarization, uHTS hits (AID 624382); assay type: functional; conditions: read-out: IC50_Mean
# [10] = molecular target: Glucose-6-phosphate 1-dehydrogenase (Homo sapiens, UniProt P11413); assay: human G6PD enzyme inhibitors, dose response, selectivity assay for P. falciparum G6PD inhibitor project, biochemical, fluorescence (AID 504792); assay type: functional
# ELAV-like protein 1 = ELAV-like protein 1 (Homo sapiens, UniProt Q15717); assay: Identify HuR specific inhibitors.; assay type: functional
# Sequence of ELAV-like protein 1 (Q15717 whole entry): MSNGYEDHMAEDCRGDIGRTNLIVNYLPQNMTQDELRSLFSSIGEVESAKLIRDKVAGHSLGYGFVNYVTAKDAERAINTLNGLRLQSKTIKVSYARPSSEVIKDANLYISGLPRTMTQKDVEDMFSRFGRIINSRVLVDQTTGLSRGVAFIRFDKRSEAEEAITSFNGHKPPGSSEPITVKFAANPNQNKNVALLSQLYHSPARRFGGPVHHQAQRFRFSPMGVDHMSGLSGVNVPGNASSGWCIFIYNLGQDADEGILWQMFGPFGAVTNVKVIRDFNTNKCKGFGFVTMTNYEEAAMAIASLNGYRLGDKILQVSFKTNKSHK
# ORF 73 = ORF 73 (Human herpesvirus 8, UniProt O40947); assay: inhibitors of C-LANA binding to LBS DNA, dose response, biochemical, fluorescence polarization, cherry-picked samples (AID 504725); set-up: species or system Human gammaherpesvirus 8;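 note: fluorescence polarization of a labeled DNA duplex reporting LANA DNA binding; potency is for inhibitors that block LANA binding to the DNA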
# [11] = molecular target: T7, Rac GTPase-activating protein 1 (Homo sapiens, UniProt Q9H0H5); assay: MgcRacGAP GTPase-activating activity inhibitors, confirmation, biochemical, ADP Hunter fluorescence, primary and confirmatory (AID 624330); assay type: functional
# T7 sequence (Q9H0H5 whole entry): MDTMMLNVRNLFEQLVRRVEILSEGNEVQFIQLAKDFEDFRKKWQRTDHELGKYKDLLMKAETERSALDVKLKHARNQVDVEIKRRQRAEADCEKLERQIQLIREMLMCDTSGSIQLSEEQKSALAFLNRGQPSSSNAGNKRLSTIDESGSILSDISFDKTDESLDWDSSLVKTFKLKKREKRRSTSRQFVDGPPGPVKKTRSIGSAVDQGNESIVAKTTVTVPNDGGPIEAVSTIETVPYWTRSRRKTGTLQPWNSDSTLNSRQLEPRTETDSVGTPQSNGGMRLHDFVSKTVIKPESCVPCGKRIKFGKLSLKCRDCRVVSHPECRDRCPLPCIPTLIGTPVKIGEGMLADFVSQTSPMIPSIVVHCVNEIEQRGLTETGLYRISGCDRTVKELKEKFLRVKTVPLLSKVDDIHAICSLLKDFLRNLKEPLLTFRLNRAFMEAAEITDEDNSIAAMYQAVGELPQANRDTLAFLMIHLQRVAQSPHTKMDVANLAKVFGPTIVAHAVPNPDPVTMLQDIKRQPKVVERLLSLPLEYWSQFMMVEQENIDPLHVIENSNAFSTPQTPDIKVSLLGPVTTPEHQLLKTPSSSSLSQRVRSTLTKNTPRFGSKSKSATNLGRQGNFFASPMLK
# Genome polyprotein = Genome polyprotein (dengue virus type 2, UniProt P29990); assay: Dengue-2 NS5 methyltransferase inhibitors, primary screen, biochemical, confirmation dose response (AID 588689); assay type: functional
# Sequence of Genome polyprotein (P29990 2492-3391 limits assumed): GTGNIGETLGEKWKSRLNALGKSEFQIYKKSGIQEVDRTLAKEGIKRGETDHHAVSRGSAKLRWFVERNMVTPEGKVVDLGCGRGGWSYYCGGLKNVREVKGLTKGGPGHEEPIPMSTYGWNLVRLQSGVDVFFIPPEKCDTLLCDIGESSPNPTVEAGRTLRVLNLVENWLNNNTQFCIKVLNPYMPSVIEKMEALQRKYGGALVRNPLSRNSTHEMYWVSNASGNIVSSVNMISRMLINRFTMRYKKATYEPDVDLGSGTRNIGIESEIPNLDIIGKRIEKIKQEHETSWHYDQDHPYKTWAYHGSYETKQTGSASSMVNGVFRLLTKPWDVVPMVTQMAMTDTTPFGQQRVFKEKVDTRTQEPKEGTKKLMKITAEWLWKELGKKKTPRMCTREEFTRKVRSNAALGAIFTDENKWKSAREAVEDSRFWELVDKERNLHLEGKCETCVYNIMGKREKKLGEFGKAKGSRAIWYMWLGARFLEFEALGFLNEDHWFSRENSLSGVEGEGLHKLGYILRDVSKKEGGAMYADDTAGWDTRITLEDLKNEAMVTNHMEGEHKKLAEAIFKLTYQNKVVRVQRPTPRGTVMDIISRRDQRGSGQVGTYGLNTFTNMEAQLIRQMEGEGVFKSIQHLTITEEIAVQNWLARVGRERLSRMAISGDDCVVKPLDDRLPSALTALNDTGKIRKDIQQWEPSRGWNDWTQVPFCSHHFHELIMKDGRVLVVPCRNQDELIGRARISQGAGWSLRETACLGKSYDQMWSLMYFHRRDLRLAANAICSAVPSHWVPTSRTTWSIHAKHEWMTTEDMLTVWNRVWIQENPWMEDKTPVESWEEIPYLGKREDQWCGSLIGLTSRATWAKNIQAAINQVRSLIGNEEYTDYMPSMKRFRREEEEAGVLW
# Keap1/Nrf2 = Keap1/Nrf2 (Homo sapiens, UniProt Q14145); assay: Keap1-Nrf2 protein-protein interaction inhibitors, dose response, biochemical, fluorescence polarization, cherry-picked samples (AID 588683)
# Sequence of Keap1/Nrf2 (Q16236 whole entry): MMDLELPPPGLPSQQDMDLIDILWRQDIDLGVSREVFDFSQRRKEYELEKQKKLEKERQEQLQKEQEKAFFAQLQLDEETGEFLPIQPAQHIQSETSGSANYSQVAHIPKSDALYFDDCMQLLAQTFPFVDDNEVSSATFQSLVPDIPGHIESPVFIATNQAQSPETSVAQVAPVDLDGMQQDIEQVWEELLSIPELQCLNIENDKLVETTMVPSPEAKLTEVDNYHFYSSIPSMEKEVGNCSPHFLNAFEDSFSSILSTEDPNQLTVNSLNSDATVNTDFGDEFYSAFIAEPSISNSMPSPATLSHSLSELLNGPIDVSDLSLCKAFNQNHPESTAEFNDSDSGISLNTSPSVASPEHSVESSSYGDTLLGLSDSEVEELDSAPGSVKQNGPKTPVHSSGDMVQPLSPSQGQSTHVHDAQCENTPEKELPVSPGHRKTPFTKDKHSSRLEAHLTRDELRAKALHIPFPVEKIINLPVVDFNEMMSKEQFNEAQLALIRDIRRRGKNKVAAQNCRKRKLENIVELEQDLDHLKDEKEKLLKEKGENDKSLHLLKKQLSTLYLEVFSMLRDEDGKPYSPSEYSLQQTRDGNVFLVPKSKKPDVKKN
# Sequence of Keap1/Nrf2 (Q14145 whole entry): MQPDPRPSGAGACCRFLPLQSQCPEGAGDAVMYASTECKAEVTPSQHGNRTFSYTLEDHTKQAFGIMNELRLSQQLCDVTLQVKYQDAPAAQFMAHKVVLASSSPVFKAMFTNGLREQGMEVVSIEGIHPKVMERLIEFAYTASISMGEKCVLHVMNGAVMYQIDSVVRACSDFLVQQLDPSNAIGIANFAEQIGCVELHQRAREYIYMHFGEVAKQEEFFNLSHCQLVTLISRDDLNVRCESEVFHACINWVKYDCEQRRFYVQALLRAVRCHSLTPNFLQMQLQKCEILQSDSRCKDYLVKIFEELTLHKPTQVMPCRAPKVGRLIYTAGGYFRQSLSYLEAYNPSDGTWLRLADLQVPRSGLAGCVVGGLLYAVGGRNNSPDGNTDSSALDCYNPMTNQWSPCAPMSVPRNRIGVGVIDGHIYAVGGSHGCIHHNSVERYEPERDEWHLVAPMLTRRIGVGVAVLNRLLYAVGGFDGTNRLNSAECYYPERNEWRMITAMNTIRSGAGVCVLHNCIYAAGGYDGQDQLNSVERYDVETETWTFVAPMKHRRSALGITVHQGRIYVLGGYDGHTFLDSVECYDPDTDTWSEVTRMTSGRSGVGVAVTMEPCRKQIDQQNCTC
# Cytochrome P450 2D6 = Cytochrome P450 2D6 (Homo sapiens, UniProt P10635);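 note: CYP2D6 member of a cytochrome P450 panel assay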
# Sequence of Cytochrome P450 2D6 (P10635 whole entry): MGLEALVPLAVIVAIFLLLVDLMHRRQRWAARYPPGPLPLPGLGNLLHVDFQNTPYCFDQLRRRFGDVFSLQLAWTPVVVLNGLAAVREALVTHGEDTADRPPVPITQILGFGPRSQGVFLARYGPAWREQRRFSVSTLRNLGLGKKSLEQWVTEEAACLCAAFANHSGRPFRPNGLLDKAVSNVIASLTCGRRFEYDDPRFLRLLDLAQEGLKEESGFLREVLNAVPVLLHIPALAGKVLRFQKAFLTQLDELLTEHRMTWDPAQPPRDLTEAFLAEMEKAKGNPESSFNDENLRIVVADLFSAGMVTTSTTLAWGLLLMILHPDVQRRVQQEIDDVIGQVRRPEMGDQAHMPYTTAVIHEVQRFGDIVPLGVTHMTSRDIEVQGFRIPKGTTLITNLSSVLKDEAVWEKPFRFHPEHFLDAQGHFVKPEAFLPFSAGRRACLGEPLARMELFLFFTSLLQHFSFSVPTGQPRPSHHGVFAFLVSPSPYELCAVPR
# Cytochrome P450 2C9 = Cytochrome P450 2C9 (Homo sapiens, UniProt P11712)
# Cytochrome P450 2C19 = Cytochrome P450 2C19 (Homo sapiens, UniProt P33261); assay: Cytochrome panel assay with activity outcomes. Panel member name: p450-cyp2c19 Compounds with AC50 equal or less than 10 uM are considered active; assay type: functional; conditions: read-out: AC50
# Sequence of Cytochrome P450 2C19 (P33261 whole entry): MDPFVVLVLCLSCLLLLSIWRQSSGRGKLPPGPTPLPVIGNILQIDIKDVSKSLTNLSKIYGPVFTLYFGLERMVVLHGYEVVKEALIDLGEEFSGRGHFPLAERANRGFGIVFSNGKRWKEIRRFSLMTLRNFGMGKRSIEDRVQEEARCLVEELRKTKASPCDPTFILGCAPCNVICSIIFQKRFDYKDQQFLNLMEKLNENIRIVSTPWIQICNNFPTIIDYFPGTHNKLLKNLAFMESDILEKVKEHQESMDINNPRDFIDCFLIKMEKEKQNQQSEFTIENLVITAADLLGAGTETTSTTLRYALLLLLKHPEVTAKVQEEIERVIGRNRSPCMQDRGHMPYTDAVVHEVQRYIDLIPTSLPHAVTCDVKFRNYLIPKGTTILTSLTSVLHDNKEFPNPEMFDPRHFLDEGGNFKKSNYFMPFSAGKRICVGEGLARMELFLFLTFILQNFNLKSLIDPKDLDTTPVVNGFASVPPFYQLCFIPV
# [12] = Luminescence Cell-Based Dose Retest to Confirm Inhibitors of Cancer Stem Cells. [Related pubchem assays (depositor defined):AID2717, AID2721]; assay type: functional; conditions: Homo sapiens
# [13] = cytotoxicity in HMLE control line with eGFP shRNA, dose response, counter-screen for HMLE_sh_ECad selective toxicity project, cell-based, HMLE_sh_eGFP, luminescence (AID 463074); assay type: functional, Homo sapiens;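 note: HMLE human mammary epithelial cells expressing control shRNA against eGFP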
# [14] = HEp-2 cell cytotoxicity, dose response, cytotoxicity control for RSV inhibitor project, HTS (AID 2410); assay type: functional; conditions: human respiratory syncytial virus
compound,measurement,setting,value
O=C(c1cnccn1)N1CCC2(CCN(Cc3cc(C(F)(F)F)cc(C(F)(F)F)c3)CC2)CC1,AC50,Cytochrome P450 1A2,inactive
O=C1c2cccc3c(N4CCCCC4)ccc(c23)C(=O)N1c1ccccn1,EC50,[1],> 300 µM (inconclusive)
same,EC50,[2],5.26 µM (inconclusive)
same,AC50,[3],58.7 µM (active)
O=C(CCS(=O)(=O)c1ccc(Br)cc1)Nc1cc(F)ccc1F,EC50,[4],2.47 µM (active)
same,IC50,[5],7.86 µM (active)
O=C(O)c1cc(N2C(=O)C=CC2=O)cc(N2C(=O)C=CC2=O)c1,IC50,[6],13.7 µM (active)
same,AC50,[7],6.9 µM (active)
same,IC50,[8],12.3 µM (inactive)
same,AC50,HeLa,> 350 µM (inactive)
same,IC50,[9],> 66.6 µM (inactive)
same,IC50,[10],61.8 µM (inactive)
same,IC50,ELAV-like protein 1,26.9 µM (inactive)
same,AC50,ORF 73,94.5 µM (active)
same,IC50,[11],19.7 µM (active)
same,IC50,Genome polyprotein,19.6 µM (active)
same,AC50,Keap1/Nrf2,19 µM (active)
O=C(Nc1cccc2ccccc12)c1nn(C23CC4CC(CC(C4)C2)C3)cc1Br,AC50,Cytochrome P450 2D6,inconclusive
same,AC50,Cytochrome P450 2C9,inconclusive
same,AC50,Cytochrome P450 2C19,2.24 µM (inconclusive)
same,AC50,[12],1.83 µM (active)
same,AC50,[13],40.6 µM (active)
same,CC50,[14],27.8 µM (active)
